According to patent US8663669B2, “Pesticide treatment of soils or substrates with sulphur compounds” (Arkema France, priority 2002, dated 2014):

Tests used:
[1] = system: larvae of Meloidogyne arenaria; assay: Nematicidal in vitro test on second-stage juvenile larvae; type: in vivo; details: for Immobility rate after 48 h: 24 h in solution then 24 h in pure water
Protocol: The second-stage juvenile larvae (the free and infesting stage) are immersed for 24 hours in the test solution and then the number of larvae paralysed are counted before transferring them into pure water for another 24 hours. At the end of the 48 hours which have thus elapsed, the larvae paralysed are again counted and the larvae truly dead are counted the next day.
(§1) The breeding of the nematodes was carried out on tomato plants. The tests were carried out with, aqueous solutions of DMDS at 0.0001%, 0.1%, 1% and 5% by mass, of DPDS at 1%, 5% and 10% by mass, and of allicin at 0.0003%, 0.0015% and 0.003% by mass, compared with a control consisting of pure water, and repeated five times. The ovicidal activity was also evaluated according to the same modalities, by counting the number of hatchings after 5 to 20 days following exposure to the products.

[2] = system: termite (Reticulitermes santonensis); assay: Insecticidal in vitro fumigation test on termites; type: in vivo; details: 24 hours of fumigation, mortality counted at the end of 48 hours; 25° C.
Protocol: Dead wood infested with termites was collected from the soil on ground occupied by a colony. This dead wood serves as breeding medium. The breeding is maintained at a constant 25° C. and a day/night 12:12 alternation.
The insects are removed in an amount of 2 soldiers per 28 workers.
The tests are carried out in hermetically closed glass jars having a volume of 3 L and containing the insects.
The product to be tested is introduced through a hole 2 mm in diameter with the aid of a micropipette and deposited on a filter paper (2×5 cm: Whatman No. 1) suspended at the centre of the jar where it migrates by capillarity and vaporizes rapidly. The hole is hermetically closed again as quickly as possible.
The jars are placed for 24 hours in an incubator under the same breeding conditions.
At the end of 24 hours, after a few instants of aeration, a first count is made and then the insects are placed again under breeding conditions for another 24 hours. The counting of the mortality is therefore carried out at the end of 48 hours. […] Each test is carried out on a population of 30 to 50 insects and is accompanied by a control without treatment. Several repeats are carried out with doses close to the LC50.

[3] = system: eggs of nematodes (Meloidogyne arenaria); assay: Ovicidal activity on the eggs of nematodes (number of hatchings); type: in vivo
Protocol: as §1

[4] = system: termite (Reticulitermes santonensis); details: value given for comparison, not among the 3 products tested; cited from earlier work

SMILES: C=CCS[S+]([O-])CC=C (centres unmarked) [allicin, diallyl thiosulphinate]
- Nematostatic and nematicidal activity ([1]; at much lower concentrations (0.0003-0.003% by mass)): high nematostatic and nematicidal activity
- Mortality rate after 72 h ([1]; concentration by mass 0.0003 %): 12%
- Immobility rate after 48 h ([1]; concentration by mass 0.0003 %): 49%
- Immobility rate after 24 h ([1]; concentration by mass 0.0003 %, aqueous solution): 7%
- Mortality rate after 72 h ([1]; concentration by mass 0.0015 %): 45%
- Immobility rate after 48 h ([1]; concentration by mass 0.0015 %): 85%
- Immobility rate after 24 h ([1]; concentration by mass 0.0015 %, aqueous solution): 19%
- Mortality rate after 72 h ([1]; concentration by mass 0.003 %): 63%
- Immobility rate after 48 h ([1]; concentration by mass 0.003 %): 65%
- Immobility rate after 24 h ([1]; concentration by mass 0.003 %, aqueous solution): 49%
- LC50 (Probits method) [2]: 0.010 g × 24 h/m^3

SMILES: C=CCSSCC=C [DADS, diallyldisulphide]
- LC50 (Probits method) [2]: 0.011 g × 24 h/m^3

SMILES: CCCSSCCC [DPDS, dipropyl disulphide]
- Concentration for total efficacy (100% mortality) ([1]; by mass, aqueous solution): greater than or equal to 1%
- Mortality rate after 72 h ([1]; concentration by mass 1 %): 100%
- Immobility rate after 48 h ([1]; concentration by mass 1 %): 100%
- Immobility rate after 24 h ([1]; concentration by mass 1 %, aqueous solution): 89%
- Mortality rate after 72 h ([1]; concentration by mass 5 %): 100%
- Immobility rate after 48 h ([1]; concentration by mass 5 %): 100%
- Immobility rate after 24 h ([1]; concentration by mass 5 %, aqueous solution): 93%
- Mortality rate after 72 h ([1]; concentration by mass 10 %): 100%
- Immobility rate after 48 h ([1]; concentration by mass 10 %): 100%
- Immobility rate after 24 h ([1]; concentration by mass 10 %, aqueous solution): 95%
- Nematostatic and nematicidal activity ([1]; concentration of greater than or equal to 1%): high nematostatic and nematicidal activity
- Ovicidal activity ([3]; 1-10 % by mass): very high ovicidal activity
- Number of hatchings (cumulative) ([3]; concentration by mass 1 %, D5, control 550): 117
- Number of hatchings (cumulative) ([3]; concentration by mass 1 %, D8, control 810): 183
- Number of hatchings (cumulative) ([3]; concentration by mass 1 %, D12, control 990): 200
- Number of hatchings (cumulative) ([3]; concentration by mass 1 %, D15, control 1 030): 200
- Number of hatchings (cumulative) ([3]; concentration by mass 1 %, D19, control 1 030): 200
- Number of hatchings (cumulative) ([3]; concentration by mass 5 %, D5, control 550): 67
- Number of hatchings (cumulative) ([3]; concentration by mass 5 %, D8, control 810): 67
- Number of hatchings (cumulative) ([3]; concentration by mass 5 %, D12, control 990): 67
- Number of hatchings (cumulative) ([3]; concentration by mass 5 %, D15, control 1 030): 67
- Number of hatchings (cumulative) ([3]; concentration by mass 5 %, D19, control 1 030): 67
- Number of hatchings (cumulative) ([3]; concentration by mass 10 %, D5, control 550): 33
- Number of hatchings (cumulative) ([3]; concentration by mass 10 %, D8, control 810): 33
- Number of hatchings (cumulative) ([3]; concentration by mass 10 %, D12, control 990): 33
- Number of hatchings (cumulative) ([3]; concentration by mass 10 %, D15, control 1 030): 33
- Number of hatchings (cumulative) ([3]; concentration by mass 10 %, D19, control 1 030): 33
- Reduction in the number of hatchings ([3]; on the last day of observation): approximately 97%

SMILES: CBr [methyl bromide]
- LC50 of the comparison fumigant [4]: 0.1 g×24 h/m^3
